Columns and labels:
Type in all cases: in vivo
Settings in all cases: 200 L/ha water, isoxaben 40, flufenacet 200, diflufenican 100 g ai/ha, observed mean
[1] = test system: BRSNW (Brassica napus, winter oilseed rape); assay: Trial 1: small plot field experiment in winter wheat, foliar applied, visual % control of BRSNW
Source text: (§1) Results in Tables 1 and 2 are for foliar applied compositions in small plot research experiments to evaluate the efficacy of the compositions in winter wheat. Application water volume was 200 liters per hectare (L/ha). Crop stage at time of application was 12-13. The values reported are means. […] Colby's equation was used to determine the herbicidal effects expected from the mixtures (Colby, S. R. Calculation of the synergistic and antagonistic response of herbicide combinations. Weeds 1967, 15, 20-22.). More specifically, the following equation was used to calculate the expected activity of mixtures containing two active ingredients, A and B:
(§2) A=observed efficacy of active ingredient A at the same concentration as used in the mixture;
(§3) B=observed efficacy of active ingredient B (or combination B) at the same concentration as used in the mixture.

[2] = test system: STEME (Stellaria media (L.) Vill., common chickweed); assay: Trial 1: small plot field experiment in winter wheat, foliar applied, visual % control of STEME
Source text: as §1, §2, §3

[3] = test system: BRSNW (Brassica napus, winter oilseed rape); assay: Trial 2: small plot field experiment in winter wheat, foliar applied, visual % control of BRSNW
Source text: as §1, §2, §3

[4] = test system: GERDI (Geranium dissectum, cutleaf geranium); assay: Trial 1: small plot field experiment in winter wheat, foliar applied, visual % control of GERDI
Source text: as §1, §2, §3

Compound | VISUAL % CONTROL OF BRSNW 28 DAT, Ob [1] [d %] | VISUAL % CONTROL OF STEME 28 DAT, Ob [2] [e %] | VISUAL % CONTROL OF BRSNW 13 DAT, Ob [3] | VISUAL % CONTROL OF BRSNW 25 DAT, Ob [3] | VISUAL % CONTROL OF GERDI 28 DAT, Ob [4] [d %]
CC(C)N(C(=O)COc1nnc(C(F)(F)F)s1)c1ccc(F)cc1 [flufenacet, N-(4-fluorophenyl)-N-(1-methylethyl)-2-[[5-(trifluoromethyl)-1,3,4-thiadiazol-2-yl]oxy]acetamide] | 0 | 0 | 43 cd % | 55 b % | 0
CCC(C)(CC)c1cc(NC(=O)c2c(OC)cccc2OC)on1 [isoxaben, N-[3-(1-ethyl-1-methylpropyl)isoxazol-5-yl]-2,6-dimethoxybenzamide] | 0 | 0 | 22 de % | 23 cd % | 0

Reference: patent publication US20140256551A1, “HERBICIDAL COMPOSITIONS COMPRISING ISOXABEN AND FLUFENACET” (Dow AgroSciences LLC, priority 2013, published 2014)
